Assay results as given in the kinase profiling compilation of Christmann-Franck et al. (2016).
Several values for one entry are separate records, joined by “and”; a condition that tells them apart may be missing. Equal values may be shown once.

Experiments:
Assay in all cases: radiometric filter-binding kinase assay, Kinase HotSpot
Details in all cases: compound 0.5 µM; ATP 10 µM
FLT1 (human) = FLT1 (human) (UniProt P17948)
GRK6 (human) = GRK6 (human) (UniProt P43250)
PRKG1 (human) = PRKG1 (human) (UniProt Q13976)
EPHA3 (human) = EPHA3 (human) (UniProt P29320)
DYRK1B (human) = DYRK1B (human) (UniProt Q9Y463)
CDK2 CCNA2 (human) = CDK2 CCNA2 (human) (UniProt P24941+P20248)
RPS6KA2 KD1 KD2 (human) = RPS6KA2 KD1 KD2 (human) (UniProt Q15349)
JAK2 JH1 JH2 (human) = JAK2 JH1 JH2 (human) (UniProt O60674)
PNCK (human) = PNCK (human) (UniProt Q6P2M8)
VRK1 (human) = VRK1 (human) (UniProt Q99986)
MLTK (human) = MLTK (human) (UniProt Q9NYL2)
PRKCH (human) = PRKCH (human) (UniProt P24723)
HIPK3 (human) = HIPK3 (human) (UniProt Q9H422)
MAPK9 (human) = MAPK9 (human) (UniProt P45984)
MAPK11 (human) = MAPK11 (human) (UniProt Q15759)
BRSK1 (human) = BRSK1 (human) (UniProt Q8TDC3)
NEK1 (human) = NEK1 (human) (UniProt Q96PY6)
CSNK2A2 (human) = CSNK2A2 (human) (UniProt P19784)
TXK (human) = TXK (human) (UniProt P42681)
SGK2 (human) = SGK2 (human) (UniProt Q9HBY8)
EPHA1 (human) = EPHA1 (human) (UniProt P21709)
MAP3K5 (human) = MAP3K5 (human) (UniProt Q99683)
CDK3 CCNE1 (human) = CDK3 CCNE1 (human) (UniProt Q00526+P24864)
GRK5 (human) = GRK5 (human) (UniProt P34947)
DYRK1A (human) = DYRK1A (human) (UniProt Q13627)
CSNK1G1 (human) = CSNK1G1 (human) (UniProt Q9HCP0)
DYRK2 (human) = DYRK2 (human) (UniProt Q92630)
CSNK1E (human) = CSNK1E (human) (UniProt P49674)
MST1R (human) = MST1R (human) (UniProt Q04912)
EPHB1 (human) = EPHB1 (human) (UniProt P54762)
MAP2K2 (human) = MAP2K2 (human) (UniProt P36507)
NEK11 (human) = NEK11 (human) (UniProt Q8NG66)
MYLK2 (human) = MYLK2 (human) (UniProt Q9H1R3)
CDK9 CCNK (human) = CDK9 CCNK (human) (UniProt O75909+P50750)
BMX (human) = BMX (human) (UniProt P51813)
CSK (human) = CSK (human) (UniProt P41240)
PRKCD (human) = PRKCD (human) (UniProt Q05655)
INSR (human) = INSR (human) (UniProt P06213)
STK33 (human) = STK33 (human) (UniProt Q9BYT3)
FGR (human) = FGR (human) (UniProt P09769)
CAMK1 (human) = CAMK1 (human) (UniProt Q14012)
AURKC (human) = AURKC (human) (UniProt Q9UQB9)

Chain of PRKG1 (human) (Q13976 whole entry, looked up): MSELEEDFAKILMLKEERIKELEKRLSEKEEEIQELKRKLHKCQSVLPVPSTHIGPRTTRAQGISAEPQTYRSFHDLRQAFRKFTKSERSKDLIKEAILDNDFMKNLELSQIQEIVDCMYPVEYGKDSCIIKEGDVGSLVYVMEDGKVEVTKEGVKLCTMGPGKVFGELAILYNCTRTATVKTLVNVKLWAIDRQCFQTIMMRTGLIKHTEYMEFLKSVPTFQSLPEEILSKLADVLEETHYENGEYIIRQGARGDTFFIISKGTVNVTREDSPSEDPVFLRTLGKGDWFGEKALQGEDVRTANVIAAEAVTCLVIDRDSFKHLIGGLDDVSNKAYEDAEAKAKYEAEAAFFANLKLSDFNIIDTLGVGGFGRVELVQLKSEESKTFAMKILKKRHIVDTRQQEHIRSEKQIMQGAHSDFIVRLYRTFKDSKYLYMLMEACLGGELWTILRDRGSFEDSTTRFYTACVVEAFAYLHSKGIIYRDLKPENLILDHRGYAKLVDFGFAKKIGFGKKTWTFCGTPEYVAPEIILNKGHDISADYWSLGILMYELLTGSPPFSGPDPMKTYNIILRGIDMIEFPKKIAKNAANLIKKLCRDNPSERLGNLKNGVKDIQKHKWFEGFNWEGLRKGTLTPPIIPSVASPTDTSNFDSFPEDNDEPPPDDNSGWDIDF
Chain of EPHA1 (human) (P21709 whole entry, looked up): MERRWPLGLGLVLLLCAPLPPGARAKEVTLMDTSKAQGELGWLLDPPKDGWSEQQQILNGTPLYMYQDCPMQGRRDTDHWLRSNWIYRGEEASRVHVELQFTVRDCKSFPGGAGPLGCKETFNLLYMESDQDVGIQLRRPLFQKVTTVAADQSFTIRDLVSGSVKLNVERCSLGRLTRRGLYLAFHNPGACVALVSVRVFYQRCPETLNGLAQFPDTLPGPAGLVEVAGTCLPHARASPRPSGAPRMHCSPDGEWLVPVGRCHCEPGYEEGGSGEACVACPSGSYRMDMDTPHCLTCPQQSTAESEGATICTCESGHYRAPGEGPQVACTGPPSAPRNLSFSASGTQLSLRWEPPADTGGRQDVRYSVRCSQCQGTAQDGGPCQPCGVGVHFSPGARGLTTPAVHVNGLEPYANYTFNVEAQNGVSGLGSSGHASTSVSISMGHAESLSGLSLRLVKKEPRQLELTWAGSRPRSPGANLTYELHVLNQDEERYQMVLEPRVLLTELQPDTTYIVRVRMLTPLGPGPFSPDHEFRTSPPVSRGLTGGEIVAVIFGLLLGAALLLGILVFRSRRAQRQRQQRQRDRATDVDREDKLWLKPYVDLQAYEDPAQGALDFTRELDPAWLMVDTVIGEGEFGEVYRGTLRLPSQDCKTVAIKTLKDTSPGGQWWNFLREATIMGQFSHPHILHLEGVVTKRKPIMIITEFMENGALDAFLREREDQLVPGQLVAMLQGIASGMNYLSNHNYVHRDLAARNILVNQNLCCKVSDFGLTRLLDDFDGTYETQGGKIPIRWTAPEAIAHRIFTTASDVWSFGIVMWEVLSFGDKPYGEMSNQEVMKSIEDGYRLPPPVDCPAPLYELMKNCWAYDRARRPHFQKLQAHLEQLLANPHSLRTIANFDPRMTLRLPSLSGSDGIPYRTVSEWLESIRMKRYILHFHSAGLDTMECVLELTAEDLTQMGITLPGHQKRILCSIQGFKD
Chain of CDK3 CCNE1 (human) (P24864 whole entry, looked up): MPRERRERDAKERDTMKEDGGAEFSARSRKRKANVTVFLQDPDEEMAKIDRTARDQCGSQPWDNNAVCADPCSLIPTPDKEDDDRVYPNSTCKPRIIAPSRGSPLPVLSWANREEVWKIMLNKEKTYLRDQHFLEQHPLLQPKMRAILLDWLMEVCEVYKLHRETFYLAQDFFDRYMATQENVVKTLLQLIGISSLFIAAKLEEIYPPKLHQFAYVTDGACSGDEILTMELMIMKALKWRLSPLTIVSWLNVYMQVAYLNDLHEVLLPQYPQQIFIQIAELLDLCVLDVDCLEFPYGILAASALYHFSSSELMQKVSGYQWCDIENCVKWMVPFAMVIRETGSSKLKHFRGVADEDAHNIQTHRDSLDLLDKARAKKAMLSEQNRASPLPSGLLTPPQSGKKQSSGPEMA
Chain of CDK3 CCNE1 (human) (Q00526 whole entry, looked up): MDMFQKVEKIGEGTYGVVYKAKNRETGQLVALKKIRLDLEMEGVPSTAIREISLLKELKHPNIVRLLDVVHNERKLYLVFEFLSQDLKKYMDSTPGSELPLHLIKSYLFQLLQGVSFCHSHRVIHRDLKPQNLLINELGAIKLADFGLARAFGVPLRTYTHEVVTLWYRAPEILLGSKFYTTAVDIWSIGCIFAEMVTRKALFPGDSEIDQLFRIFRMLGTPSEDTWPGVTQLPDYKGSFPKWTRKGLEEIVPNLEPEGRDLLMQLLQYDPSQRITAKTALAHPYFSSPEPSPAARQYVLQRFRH
Chain of NEK1 (human) (Q96PY6 whole entry, looked up): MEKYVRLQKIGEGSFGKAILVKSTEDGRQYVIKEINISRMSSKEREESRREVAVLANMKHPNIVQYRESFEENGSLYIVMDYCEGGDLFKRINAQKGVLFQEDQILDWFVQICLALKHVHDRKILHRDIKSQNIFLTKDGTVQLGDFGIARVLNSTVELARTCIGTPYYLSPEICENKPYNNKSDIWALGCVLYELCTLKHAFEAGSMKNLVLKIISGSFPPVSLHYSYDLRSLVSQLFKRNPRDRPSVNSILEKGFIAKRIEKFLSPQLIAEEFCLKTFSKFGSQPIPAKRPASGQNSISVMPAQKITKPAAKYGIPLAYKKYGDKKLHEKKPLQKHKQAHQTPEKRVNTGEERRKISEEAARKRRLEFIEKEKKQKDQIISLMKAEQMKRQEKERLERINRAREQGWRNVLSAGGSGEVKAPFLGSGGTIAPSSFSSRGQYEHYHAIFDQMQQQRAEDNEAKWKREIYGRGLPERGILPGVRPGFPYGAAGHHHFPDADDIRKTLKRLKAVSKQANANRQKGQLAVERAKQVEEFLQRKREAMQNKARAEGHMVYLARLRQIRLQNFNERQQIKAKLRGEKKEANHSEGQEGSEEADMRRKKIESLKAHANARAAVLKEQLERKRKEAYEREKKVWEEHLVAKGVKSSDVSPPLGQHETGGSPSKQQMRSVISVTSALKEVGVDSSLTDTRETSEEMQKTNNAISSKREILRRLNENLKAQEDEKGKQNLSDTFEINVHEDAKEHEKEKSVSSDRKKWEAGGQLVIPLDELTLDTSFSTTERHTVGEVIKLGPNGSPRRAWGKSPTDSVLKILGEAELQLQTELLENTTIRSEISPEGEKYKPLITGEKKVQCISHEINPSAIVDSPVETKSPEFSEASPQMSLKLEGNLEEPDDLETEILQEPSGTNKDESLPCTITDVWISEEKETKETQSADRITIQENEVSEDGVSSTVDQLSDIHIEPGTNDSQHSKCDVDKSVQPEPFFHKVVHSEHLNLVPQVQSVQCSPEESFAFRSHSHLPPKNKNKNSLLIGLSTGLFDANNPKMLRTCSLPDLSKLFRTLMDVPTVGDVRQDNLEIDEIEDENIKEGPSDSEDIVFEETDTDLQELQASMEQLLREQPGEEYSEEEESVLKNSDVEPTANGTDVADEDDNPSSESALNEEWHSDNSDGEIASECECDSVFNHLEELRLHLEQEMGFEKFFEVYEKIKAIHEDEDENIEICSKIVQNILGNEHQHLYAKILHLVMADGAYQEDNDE
Chain of INSR (human) (P06213 whole entry, looked up): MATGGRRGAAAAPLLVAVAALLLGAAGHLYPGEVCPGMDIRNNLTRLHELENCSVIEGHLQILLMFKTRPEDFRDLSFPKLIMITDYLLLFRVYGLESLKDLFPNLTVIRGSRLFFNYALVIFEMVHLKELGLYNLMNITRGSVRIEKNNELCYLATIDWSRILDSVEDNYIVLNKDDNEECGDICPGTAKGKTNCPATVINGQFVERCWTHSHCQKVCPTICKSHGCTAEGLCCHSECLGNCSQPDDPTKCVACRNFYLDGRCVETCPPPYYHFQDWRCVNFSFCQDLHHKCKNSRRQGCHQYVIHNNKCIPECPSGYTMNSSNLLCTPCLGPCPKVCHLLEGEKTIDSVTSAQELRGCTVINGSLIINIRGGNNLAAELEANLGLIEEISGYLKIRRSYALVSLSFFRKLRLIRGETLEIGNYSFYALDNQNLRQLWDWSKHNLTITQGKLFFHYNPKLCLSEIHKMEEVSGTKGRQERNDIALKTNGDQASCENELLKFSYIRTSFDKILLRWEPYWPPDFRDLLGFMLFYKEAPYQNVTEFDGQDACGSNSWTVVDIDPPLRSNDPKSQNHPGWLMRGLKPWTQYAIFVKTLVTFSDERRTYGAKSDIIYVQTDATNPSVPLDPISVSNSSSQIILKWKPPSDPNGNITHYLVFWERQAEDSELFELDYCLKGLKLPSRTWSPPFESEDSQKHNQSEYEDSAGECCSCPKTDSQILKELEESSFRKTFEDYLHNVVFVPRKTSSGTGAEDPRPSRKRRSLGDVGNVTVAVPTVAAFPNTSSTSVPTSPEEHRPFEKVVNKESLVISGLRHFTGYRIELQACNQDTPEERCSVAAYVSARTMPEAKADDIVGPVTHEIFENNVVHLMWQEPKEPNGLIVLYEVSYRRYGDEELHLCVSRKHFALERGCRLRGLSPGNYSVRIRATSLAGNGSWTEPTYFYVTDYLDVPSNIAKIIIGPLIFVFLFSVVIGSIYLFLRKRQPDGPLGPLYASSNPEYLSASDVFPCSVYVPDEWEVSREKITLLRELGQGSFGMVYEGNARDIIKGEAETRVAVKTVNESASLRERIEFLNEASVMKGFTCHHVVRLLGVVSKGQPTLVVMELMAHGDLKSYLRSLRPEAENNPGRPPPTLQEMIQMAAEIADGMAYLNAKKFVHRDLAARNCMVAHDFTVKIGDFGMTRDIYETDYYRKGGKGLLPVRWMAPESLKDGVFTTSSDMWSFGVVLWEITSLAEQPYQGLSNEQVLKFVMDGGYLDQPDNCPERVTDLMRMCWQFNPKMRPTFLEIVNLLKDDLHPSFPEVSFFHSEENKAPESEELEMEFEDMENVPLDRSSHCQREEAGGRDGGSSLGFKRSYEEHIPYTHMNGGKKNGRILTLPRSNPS

O=C1NC(=O)c2c1c1c3ccccc3[nH]c1n1cncc21
residual activity (FLT1 (human)): 58% | residual activity (GRK6 (human)): 82.1% | residual activity (PRKG1 (human)): 85.9% and 93.8% | residual activity (EPHA3 (human)): 105% | residual activity (DYRK1B (human)): 65.9% | residual activity (CDK2 CCNA2 (human)): 75.9% | residual activity (RPS6KA2 KD1 KD2 (human)): 32.7% | residual activity (JAK2 JH1 JH2 (human)): 117% | residual activity (PNCK (human)): 105% | residual activity (VRK1 (human)): 78.1% | residual activity (MLTK (human)): 78.7% | residual activity (PRKCH (human)): 74.8% | residual activity (HIPK3 (human)): 66.9% | residual activity (MAPK9 (human)): 65.3% | residual activity (MAPK11 (human)): 94.5% | residual activity (BRSK1 (human)): 22.5% | residual activity (NEK1 (human)): 75.2% | residual activity (CSNK2A2 (human)): 53.4% | residual activity (TXK (human)): 76.4% | residual activity (SGK2 (human)): 75.3% | residual activity (EPHA1 (human)): 72.4% | residual activity (MAP3K5 (human)): 97.8% | residual activity (CDK3 CCNE1 (human)): 76.7% | residual activity (GRK5 (human)): 94.4% | residual activity (DYRK1A (human)): 89.1% | residual activity (CSNK1G1 (human)): 68.4% | residual activity (DYRK2 (human)): 64.1% | residual activity (CSNK1E (human)): 18.9% | residual activity (MST1R (human)): 102% | residual activity (EPHB1 (human)): 94% | residual activity (MAP2K2 (human)): 85.9% | residual activity (NEK11 (human)): 99% | residual activity (MYLK2 (human)): 33.7% | residual activity (CDK9 CCNK (human)): 83.8% | residual activity (BMX (human)): 91.7% | residual activity (CSK (human)): 83.3% | residual activity (PRKCD (human)): 65% | residual activity (INSR (human)): 17.9% | residual activity (STK33 (human)): 52.3% | residual activity (FGR (human)): 94.8% | residual activity (CAMK1 (human)): 83.3% | residual activity (AURKC (human)): 47.6%

c1ccc2c(-c3ccncc3)c[nH]c2c1
residual activity (FLT1 (human)): 97.9% | residual activity (GRK6 (human)): 103% | residual activity (PRKG1 (human)): 64.8% and 77.7% | residual activity (EPHA3 (human)): 107% | residual activity (DYRK1B (human)): 90.5% | residual activity (CDK2 CCNA2 (human)): 99.7% | residual activity (RPS6KA2 KD1 KD2 (human)): 89% | residual activity (JAK2 JH1 JH2 (human)): 93.8% | residual activity (PNCK (human)): 98.5% | residual activity (VRK1 (human)): 101% | residual activity (MLTK (human)): 102% | residual activity (PRKCH (human)): 84.9% | residual activity (HIPK3 (human)): 107% | residual activity (MAPK9 (human)): 103% | residual activity (MAPK11 (human)): 112% | residual activity (BRSK1 (human)): 90.3% | residual activity (NEK1 (human)): 101% | residual activity (CSNK2A2 (human)): 94.9% | residual activity (TXK (human)): 104% | residual activity (SGK2 (human)): 91% | residual activity (EPHA1 (human)): 105% | residual activity (MAP3K5 (human)): 109% | residual activity (CDK3 CCNE1 (human)): 98.2% | residual activity (GRK5 (human)): 99.2% | residual activity (DYRK1A (human)): 77.6% | residual activity (CSNK1G1 (human)): 79.2% | residual activity (DYRK2 (human)): 77.5% | residual activity (CSNK1E (human)): 100% | residual activity (MST1R (human)): 98.9% | residual activity (EPHB1 (human)): 108% | residual activity (MAP2K2 (human)): 103% | residual activity (NEK11 (human)): 76.9% | residual activity (MYLK2 (human)): 96.2% | residual activity (CDK9 CCNK (human)): 91.2% | residual activity (BMX (human)): 95.8% | residual activity (CSK (human)): 107% | residual activity (PRKCD (human)): 83.2% | residual activity (INSR (human)): 90.5% | residual activity (STK33 (human)): 97.3% | residual activity (FGR (human)): 94.5% | residual activity (CAMK1 (human)): 108% | residual activity (AURKC (human)): 93.1%
